Data taken from patent US20220089540A1 (Board of Trustees of Michigan State University, priority 2019, published 2022).
Where “and” joins values, the source holds several entries; their conditions need not be identical. Equal entries are not always repeated. Where two headings read alike, the source gives them in different places.

What was measured:
LogD at pH 7.4 = format: physicochemical; conditions: pH 7.4 buffer
Method: Note that for Table 6, Log D is the distribution constant, which is descriptor of the lipophilicity of a molecule. This was determined using an aqueous phase that was adjusted to pH 7.4 using a buffer.

[1] = tested on: mammary gland tumors of MMTV-Neu mice; test: MMTV-Neu mouse model of HER2 positive breast cancer, rexinoid in diet; conditions: 100 mg/kg diet; LG268 5 days, CW-V-125 10 days; western blot and/or immunohistochemistry
Method: Tumors or mammary glands were homogenized in EBC buffer (1M Tris pH 8, 5M NaCl) with the same protease inhibitors and 10% NP-40 and incubated on ice for 30 min. Protein concentrations were determined by the BCA assay (Sigma-Aldrich). Proteins were resolved by SDS-PAGE, transferred to a nitrocellulose membrane and analyzed with the following antibodies: vinculin, p-STAT1, p-STAT3, p-STAT5 and mouse and rabbit secondary antibodies (Cell Signaling); PD-1, CD206 (Abcam); PD-L1 (R&D). ImageJ was used to quantify the immunoblots, and results were plotted and statistically analyzed using Prism 6. All images shown are representative of 3 independent experiments.
One third of the tumor, mammary gland and spleen removed from MMTV-neu or MMTV-PyMT mice were minced separately and incubated in digestion media consisting of collagenase (300 U/ml, Sigma), dispase (1 U/ml, Worthington), and DNAse (2 U/ml, Calbiochem) for 30 minutes at 37° C. with stirring. Cells were then passed through a 40 μm cell strainer (BD Falcon), and red blood cells eliminated with lysis solution. […] Propidium iodide staining was used to exclude dead cells.
One third of the tumor, spleen and one mammary was removed from MMTV-neu and PyMT mice and fixed in 10% phosphate-buffered formalin for 48 hours, embedded in paraffin blocks, and sectioned (5-6 μm). Hydrogen peroxide was used to quench endogenous peroxidase activity. Sections were immunostained with antibodies raised against CD206 (1:200, Abcam), Gr1 (1:40, BM8, R&D), CD8 (1:40, Biolegend), FOXP3 (1:50, EBiosciences), PD-1 (1:100, Abcam), PD-L1 (1:50, Abcam), cleaved caspase 3 (Cell Signaling) and visualized with biotinylated anti-rabbit or anti-rat secondary antibodies (Cell Signaling or Vector Labs). Signal was detected using a DAB substrate (Cell Signaling) following the manufacturer's recommendations. Sections were counterstained with hematoxylin (Vector Labs).
Both rexinoid treatments were 100 mg/kg of diet, which is equivalent to 25 mg/kg of body weight (FIG. 1B).

PD-L1 = PD-L1 induction in macrophages or RAW264.7 cells with cancer cell conditioned media (flow cytometry); format: cell-based, mouse; conditions: for PD-L1 Levels: Table 4, Control 43.3; for PD-L1: Table 2, Control 39.8, higher numbers indicate better upregulation
Method: RAW 264.7 mouse macrophage-like (ATCC) and E18-14C-27 (Wu et al., Cancer Res. 62, 6376-6380 (2002)) cells were cultured in DMEM supplemented with 10% fetal bovine serum (FBS). RAW 264.7 cells were cultured at 50000/well in a 6 well plate for 24 hours to determine PD-L1 levels. E18-14C-27 cells were cultured for 72 hours in the presence of LG268 for protein levels. Conditioned media was collected from E18-14C-27 at 60-70% confluence for 24 hours; media was then collected and centrifuged at 900 rpm for 5 minutes to eliminate any cell debris.
For PD-L1 staining, RAW 264.7 cells were plated at 25000 cells/ml in 6 well plates for 24 hours before adding conditioned media from E18-14C-27 and LG268. RAW 264.7 cells were cultured for additional 24 hours with E18-14C-27 conditioned media and LG268. […] THP-1 cells were stained and analyzed for the levels of PD-L1 following the same protocol.
Inhibitory receptors on lymphocytes such as PD-1 (programmed cell death protein 1) are important immune checkpoints that protect against autoimmunity as the interaction between PD-L1 (ligand) and the PD-1 receptor expressed on immune cells suppresses T cell activity. Immuno-oncology is revolutionizing cancer treatment, and enormous research efforts are ongoing to identify drugs that upregulate PD-L1 so that they can be combined with checkpoint inhibitors to boost efficacy. Macrophages or RAW264.7 cells are treated with conditioned media from cancer cells and rexinoids, and PD-L1 expression determined by flow cytometry. Higher numbers indicate better upregulation of PD-LI.
Using methods described herein, macrophages or RAW264.7 cells were treated with selected rexinoids and with conditioned media from cancer cells. Structures of the rexinoids are shown below.
PD-L1 expression was determined by flow cytometry.

human RXRa = molecular target: T1, human RXRa (Homo sapiens, UniProt P19793); test: RXR activation luciferase reporter assay; format: cell-based; conditions: luciferase, Control 0, higher numbers indicate higher potency
T1 sequence (P19793 1-462): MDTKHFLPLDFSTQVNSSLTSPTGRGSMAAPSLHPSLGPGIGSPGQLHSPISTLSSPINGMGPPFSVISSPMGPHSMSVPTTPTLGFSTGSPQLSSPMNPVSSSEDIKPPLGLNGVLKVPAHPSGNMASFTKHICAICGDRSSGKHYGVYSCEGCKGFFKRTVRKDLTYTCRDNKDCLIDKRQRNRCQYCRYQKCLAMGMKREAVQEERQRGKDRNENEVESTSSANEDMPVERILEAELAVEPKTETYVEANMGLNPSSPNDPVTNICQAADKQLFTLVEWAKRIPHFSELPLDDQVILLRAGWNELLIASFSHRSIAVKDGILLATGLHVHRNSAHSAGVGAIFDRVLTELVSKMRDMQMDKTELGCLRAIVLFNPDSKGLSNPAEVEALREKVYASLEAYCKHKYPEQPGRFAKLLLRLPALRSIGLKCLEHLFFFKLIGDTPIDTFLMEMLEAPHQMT
Excerpt: Rexinoids are agonists for the retinoid X receptors (RXRs). In this assay, the human RXRa promoter is functionally linked to a luciferase reporter gene. Changes in luciferase expression served as a sensitive surrogate measure of RXR activity. Higher numbers indicate higher potency.

[2] = tested on: inducible nitric oxide synthase (iNOS); test: iNOS suppression / NO assay in LPS-stimulated macrophages or RAW264.7 cells (Griess reaction); format: cell-based, mouse
Method: Macrophages or RAW264.7 like-cells were treated with various concentrations of rexinoids and stimulated with lipopolysaccaride (LPS) to activate inducible nitric oxide synthase (iNOS) to produce nitric oxide. This in vitro iNOS assay was rapid, reproducible, quantitative and predictive. Nitric oxide is implicated in the apoptosis of cancer cells via regulation of RXRs. There is a tight correlation between the % reduction of iNOS and efficacy in preclinical lung cancer models. Lower numbers indicate higher efficacy.
RAW264.7 cells were incubated with 300 nM rexinoids and stimulated with 1-2 ng/ml lipopolysaccaride (LPS) for 24 hours to activate inducible nitric oxide synthase (iNOS) to produce nitric oxide. Nitric oxide released into the media was measured by the Griess reaction.
Also, for Table 6, the iNOS suppression is the percent of the LPS-stimulated control where the compounds were measured at 100 nM or 300 nM.
Macrophages or RAW264.7 cells were treated with various concentrations of rexinoids listed in Table 7 and stimulated with lipopolysaccaride (LPS) to activate inducible nitric oxide synthase (iNOS) to produce nitric oxide. Nitric oxide (NO) is implicated in the apoptosis of cancer cells via regulation of RXRs. There is a tight correlation between the % reduction of iNOS and efficacy in preclinical lung cancer models. The in vitro iNOS assay is rapid, reproducible, quantitative and predictive, as NO production is measured in culture medium using the Griess reaction. Values are either presented as % inhibition or IC50 values.

SREBP = SREBP induction in human liver (HepG2) cells, RT-PCR; format: cell-based; parameters: key to SREBP: fold induction vs DMSO control; conditions: for SREBP: 300 nM, Control 1.00, lower numbers indicate better safety, Table 2; for SREBP activation: fold induction compared to DMSO, several values per cell, Table 6
Method: The SREBP transcription factor is involved in triglyceride synthesis, and its activation correlates with increased triglycerides in vivo. […] Lower numbers indicate better safety. […] Lower numbers indicate better safety. Also, for Table 6, SREBP activation was measured as fold induction compared to DMSO, where a lower value indicates the compound is an improvement over a control.

[3] = Mus musculus, RAW264.7, 24 h, read-out: iNOS (300 nM)
[4] = Mus musculus, RAW264.7, read-out: NO Assay
[5] = Mus musculus, RAW264.7, 125 nM, Control 100, lower numbers indicate higher efficacy, read-out: NO Assay
[6] = Mus musculus, RAW264.7, 500 nM, Control 100, lower numbers indicate higher efficacy, read-out: NO Assay
[7] = Mus musculus, RAW264.7, 24 h, at 300 nM, percent of the LPS-stimulated control, lower is better, Table 6, read-out: iNOS suppression

## CC(C)(C)c1cc(C(C)(C)C)cc(C2(c3ccc(C(=O)O)cn3)CC2)c1
LogD at pH 7.4
  logD: 2.8

## Cc1cc(OCC(C)C)c(C(C)C)cc1C1(c2ccc(C(=O)O)cn2)CC1
LogD at pH 7.4
  logD: 2.6

## CCN(c1ccc(C(=O)O)cn1)c1cc2c(cc1C)C(C)(C)CCC2(C)C [CW-V-125]
[1]
  PD-L1 expression in tumors vs control: increases
PD-L1; 100 nM
  PD-L1 Levels: 72.5
PD-L1; 1000 nM
  PD-L1 Levels: 69.9

## CCN(c1ccc2c(c1)C(C)(C)CCC2(C)C)c1ncc(C(=O)O)cn1 [CW-V-127]
PD-L1; 100 nM
  PD-L1 Levels: 65.1
PD-L1; 1000 nM
  PD-L1 Levels: 64.5

## C=C(c1ccc(C(=O)O)cc1)c1cc(C(C)(C)C)cc(C(C)(C)C)c1 [Compound 3, 4-[1-(3,5-di-tert-butylphenyl)ethenyl]benzoic Acid]
Human RXRa; 100 nM
  RXR assay: 523
Human RXRa; 2500 nM
  RXR assay: 8163
[2]; [3]
  activity at 0.3 µM: ~65%
[2]; [4]
  activity at 0.125 µM: 42.5%
  activity at 0.5 µM: 19.8%
PD-L1; 100 nM
  PD-L1: 26.5
SREBP
  SREBP: 1.14

## CC(C)(C)c1cc(-n2c(C(F)(F)F)nc3cc(C(=O)O)ccc32)cc(C(C)(C)C)c1 [Compound 7, 1-(3,5-di-tert-butylphenyl)-2-(trifluoromethyl)-1H-1,3-benzodiazole-5-carboxylic Acid]
[2]; [3]
  activity at 0.3 µM: 55%
[2]; [4]
  activity at 0.125 µM: 38.7%
  activity at 0.5 µM: 23.6%
PD-L1; 100 nM
  PD-L1: 44.2
SREBP
  SREBP: 1.57

## CCN(c1ccc(C(=O)O)cc1)c1cc(C(C)(C)C)cc(C(C)(C)C)c1 [Compound 8, 4-[(3,5-di-tert-butylphenyl)(ethyl)amino]benzoic Acid]
Human RXRa; 100 nM
  RXR assay: 1009
Human RXRa; 2500 nM
  RXR assay: 23514
[2]; [4]
  activity at 0.125 µM: > 80%
  activity at 0.5 µM: 31.5%
PD-L1; 100 nM
  PD-L1: 31.2
SREBP
  SREBP: 1.95

## CCN(c1cc(C(C)(C)C)cc(C(C)(C)C)c1)c1ccc(C(=O)O)cn1 [Compound 9, 6-[(3,5-di-tert-butylphenyl)(ethyl)amino]pyridine-3-carboxylic Acid]
[2]; [3]
  activity at 0.3 µM: ~25%
[2]; [4]
  activity at 0.125 µM: 76.3%
  activity at 0.5 µM: 26.8%
PD-L1; 100 nM
  PD-L1: 39.7
SREBP
  SREBP: 2.70

## CCN(c1cc(C(C)(C)C)cc(C(C)(C)C)c1)c1ncc(C(=O)O)cn1 [Compound 10, 2-[(3,5-di-tert-butylphenyl)(ethyl)amino]pyrimidine-5-carboxylic Acid]
Human RXRa; 100 nM
  RXR assay: 1007
Human RXRa; 2500 nM
  RXR assay: 17963
[2]; [4]
  activity at 0.125 µM: 48.6%
  activity at 0.5 µM: 19%
PD-L1; 100 nM
  PD-L1: 32
SREBP
  SREBP: 1.44

## CCN(c1ccc(C(=O)O)cn1)c1cc(C(C)(C)C)ccc1C [Compound 12, 6-[(5-tert-butyl-2-methylphenyl)(ethyl)amino]pyridine-3-carboxylic Acid]
[2]; [4]
  activity at 0.125 µM: 44.2%
  activity at 0.5 µM: 16.7%
PD-L1; 100 nM
  PD-L1: 45.8
SREBP
  SREBP: 1.69

## CCCN(c1cc(C(C)(C)C)cc(C(C)(C)C)c1)c1ccc(C(=O)O)cn1 [Compound 13, 6-[(3,5-di-tert-butylphenyl)(propyl)amino]pyridine-3-carboxylic Acid]
Human RXRa; 100 nM
  RXR assay: 16063
Human RXRa; 2500 nM
  RXR assay: 26703
[2]; [5]
  activity at 0.125 µM: 94.5%
[2]; [6]
  activity at 0.5 µM: 32%
PD-L1; 100 nM
  PD-L1: 67.9
SREBP
  SREBP: 2.44

## CC(C)(C)c1cc(N(CC2CC2)c2ccc(C(=O)O)cn2)cc(C(C)(C)C)c1 [Compound 14, 6-[(cyclopropylmethyl)(3,5-di-tert-butylphenyl)amino]pyridine-3-carboxylic Acid]
[2]; [4]
  activity at 0.125 µM: 78.2%
  activity at 0.5 µM: 25.9%
PD-L1; 100 nM
  PD-L1: 46.2
SREBP
  SREBP: 2.37

## CCN(c1cc(C(F)(F)F)cc(C(F)(F)F)c1)c1ccc(C(=O)O)cn1 [Compound 15, 6-{[3,5-bis(trifluoromethyl)phenyl](ethyl)amino}pyridine-3-carboxylic Acid]
[2]; [4]
  activity at 0.125 µM: 87%
  activity at 0.5 µM: 27.9%
PD-L1; 100 nM
  PD-L1: 34.8
SREBP
  SREBP: 1.11

## CCCCN(c1cc(C(C)(C)C)cc(C(C)(C)C)c1)c1ccc(C(=O)O)cn1 [Compound 19]
Human RXRa; 100 nM
  RXR assay: 13422
Human RXRa; 2500 nM
  RXR assay: 24350
[2]; [5]
  activity at 0.125 µM: 45.6%
[2]; [6]
  activity at 0.5 µM: 9.4%
PD-L1; 100 nM
  PD-L1: 50.2
SREBP
  SREBP: 4.77

## C/C(=C/C=C/C(C)=C/C(=O)O)c1cc(C(C)(C)C)cc(C(C)(C)C)c1OCC(F)F [LG101506, reference compound]
Human RXRa; 100 nM
  RXR assay: 1077
Human RXRa; 2500 nM
  RXR assay: 558
[2]; 125 nM, Control 100, lower numbers indicate higher efficacy
  NO Assay: 56.3
[2]; 500 nM, Control 100, lower numbers indicate higher efficacy
  NO Assay: 16.3
PD-L1; 100 nM
  PD-L1: 67.2
SREBP
  SREBP: 1.12

## CC(/C=C/[C@@H]1C[C@]1(C)c1ccc2c(c1)C(C)(C)CCC2(C)C)=C\C(=O)O [VTP194204]
PD-L1; 100 nM
  PD-L1 Levels: 63.8
PD-L1; 1000 nM
  PD-L1 Levels: 70.9

## CCN(c1ccc(C(=O)O)cc1)c1cc(C(C)(C)C)cc(C(C)(C)C)c1 [drawing 104]
[2]; [7]
  activity at 0.3 µM: 43%
LogD at pH 7.4
  logD: 4
SREBP
  SREBP activation: 1.8 fold induction and 2.5 fold induction

## C=C(c1ccc(C(=O)O)cc1)c1cc(C(C)(C)C)ccc1OCC [drawing 108]
[2]; [7]
  activity at 0.3 µM: 67%
SREBP
  SREBP activation: 2.1 fold induction

## CC(C)(C)c1cc(-n2c(C(F)(F)F)nc3cc(C(=O)O)ccc32)cc(C(C)(C)C)c1 [drawing 109]
[2]; [7]
  activity at 0.3 µM: 45%
SREBP
  SREBP activation: 3.4 fold induction and 2.1 fold induction

## CCN(c1ccc(C(=O)O)cn1)c1cc(C(C)(C)C)ccc1C [drawing 112]
[2]; [7]
  activity at 0.3 µM: 60%
SREBP
  SREBP activation: 2.7 fold induction and 2.2 fold induction

## C=C(c1ccc(C(=O)O)cc1)c1cc(C(C)(C)C)cc(C(C)(C)C)c1 [drawing 116]
[2]; [7]
  activity at 0.3 µM: 61%
LogD at pH 7.4
  logD: 3.8

## CC(C)(C)c1cc(N(CC2CC2)c2ccc(C(=O)O)cn2)cc(C(C)(C)C)c1 [drawing 118]
[2]; Mus musculus, RAW264.7, 24 h, at 100 nM, percent of the LPS-stimulated control, lower is better, Table 6
  activity at 0.1 µM: 19%
[2]; [7]
  activity at 0.3 µM: 13%
LogD at pH 7.4
  logD: 3.4
